Results taken from patent publication US5510332A, “Process to inhibit binding of the integrin α4 62 1 to VCAM-1 or fibronectin and linear peptides therefor” (priority 1994, dated 1996).
Where no end group is shown, it is not given here.

Target: T1, binding of the integrin α4 β1 to VCAM (Homo sapiens, UniProt P05556+P13612)
T1 construct: endogenous in cells; host or cells: Ramos (human B-cell line) for endogenous α4β1; CHO cells stably transfected with human VCAM cDNA for the counter-receptor
Assay: Cell-cell assay: 35S-labelled Ramos cells binding to VCAM expressing CHO cells
Format: cell-based
Conditions: single concentration at which SEQ ID NO:9 gives approximately 50% inhibition of adhesion; SEQ ID NO:9 = 1.00; >2.00 indicates little or no inhibition of VCAM-α4 β1 binding
From the text: The VCAM-1 binding assays involved assessing the ability of cells that express α4 β1 to bind cells expressing VCAM (cell-cell assay) or to bind purified VCAM protein (cell-protein assay). The integrin-expressing cell types used in these assays included the human B-cell line, Ramos, and the human promyelocytic line, HL-60. The cell-cell assay was used to compare the relative potency of peptides at a single dose. The cell-protein assay was used to generate dose response curves and determine IC50 values. A human VCAM cDNA was amplified by the polymerase chain reaction (PCR) from cDNA reverse transcribed from RNA isolated from human umbilical vein endothelial cells. The VCAM cDNA was ligated into a mammalian expression vector and electroporated into chinese hamster ovary (CHO) cells. Cells were grown in G418 selective media and clones expressing high levels of VCAM were selected by FACS analysis. VCAM expressing CHO cells and nontransfected CHO cells were plated in 48 well cluster dishes at a density of 50,000 cells/well 24 hour prior to assay. The dishes were washed with binding buffer (DMEM, 1% BSA, 1.0 mM MnCl2, 0.02% sodium azide, pH 7.4) immediately prior to assay. […] Unbound cells were removed by washing with binding buffer and the remaining bound cells were lysed with 50 mM Tris, pH 8.0, 150 mM NaCl, 1% SDS and transferred to scintillation vials for quantitation.

T1 sequence (P13612 34-1032): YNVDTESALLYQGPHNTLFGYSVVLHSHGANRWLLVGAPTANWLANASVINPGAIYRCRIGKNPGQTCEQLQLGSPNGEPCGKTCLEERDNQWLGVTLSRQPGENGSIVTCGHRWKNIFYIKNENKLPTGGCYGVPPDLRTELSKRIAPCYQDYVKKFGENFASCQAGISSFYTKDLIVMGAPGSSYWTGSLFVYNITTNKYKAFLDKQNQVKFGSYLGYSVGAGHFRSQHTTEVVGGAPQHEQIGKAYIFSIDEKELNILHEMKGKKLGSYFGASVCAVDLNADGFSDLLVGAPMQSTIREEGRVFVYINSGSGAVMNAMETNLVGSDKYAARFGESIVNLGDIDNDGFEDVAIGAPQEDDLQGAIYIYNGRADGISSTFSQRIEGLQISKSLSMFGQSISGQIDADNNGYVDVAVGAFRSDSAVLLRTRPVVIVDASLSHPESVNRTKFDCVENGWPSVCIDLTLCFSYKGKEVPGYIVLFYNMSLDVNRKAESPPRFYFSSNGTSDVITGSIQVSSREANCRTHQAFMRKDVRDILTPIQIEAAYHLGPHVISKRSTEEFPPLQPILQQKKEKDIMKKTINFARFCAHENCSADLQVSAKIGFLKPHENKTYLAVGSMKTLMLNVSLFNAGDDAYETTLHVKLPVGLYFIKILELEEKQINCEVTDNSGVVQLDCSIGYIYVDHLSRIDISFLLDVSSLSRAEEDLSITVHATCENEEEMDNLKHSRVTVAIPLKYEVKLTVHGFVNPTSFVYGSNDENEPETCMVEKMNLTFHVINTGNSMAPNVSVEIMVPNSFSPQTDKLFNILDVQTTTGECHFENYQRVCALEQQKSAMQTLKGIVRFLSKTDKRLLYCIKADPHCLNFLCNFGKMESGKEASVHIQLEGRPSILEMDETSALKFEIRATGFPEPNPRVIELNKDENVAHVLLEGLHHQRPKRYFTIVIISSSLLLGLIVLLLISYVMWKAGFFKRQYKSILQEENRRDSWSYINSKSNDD
T1 sequence (P05556 21-798): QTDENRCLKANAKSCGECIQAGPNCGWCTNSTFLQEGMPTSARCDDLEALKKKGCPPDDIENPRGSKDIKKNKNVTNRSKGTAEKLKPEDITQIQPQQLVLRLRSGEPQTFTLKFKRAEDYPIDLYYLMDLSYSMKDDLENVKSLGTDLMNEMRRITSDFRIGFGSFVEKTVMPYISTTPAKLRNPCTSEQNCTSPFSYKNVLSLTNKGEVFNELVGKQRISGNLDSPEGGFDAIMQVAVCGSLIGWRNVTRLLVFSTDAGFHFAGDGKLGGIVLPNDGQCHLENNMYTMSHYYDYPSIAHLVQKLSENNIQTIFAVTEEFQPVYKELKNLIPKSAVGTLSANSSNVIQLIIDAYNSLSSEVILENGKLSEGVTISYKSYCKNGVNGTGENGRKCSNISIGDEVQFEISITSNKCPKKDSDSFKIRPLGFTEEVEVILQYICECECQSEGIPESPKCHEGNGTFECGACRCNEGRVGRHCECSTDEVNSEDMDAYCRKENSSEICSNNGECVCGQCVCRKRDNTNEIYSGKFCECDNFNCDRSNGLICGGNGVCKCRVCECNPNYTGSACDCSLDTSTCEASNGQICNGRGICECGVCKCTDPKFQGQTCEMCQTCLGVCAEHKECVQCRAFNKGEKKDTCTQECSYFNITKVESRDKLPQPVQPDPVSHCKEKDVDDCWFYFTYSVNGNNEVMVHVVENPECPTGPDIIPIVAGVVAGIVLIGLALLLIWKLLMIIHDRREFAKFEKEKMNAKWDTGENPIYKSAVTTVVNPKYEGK

| Substance | relative quantity of adhered cells in relationship to peptide SEQ ID NO:9 |
| --- | --- |
| GPEWLDQP-NH2 [SEQ ID NO:9 V→Q] | 1.97 |
| GPRWLDVP-NH2 [SEQ ID NO:9 E→R, Gly-Pro-Arg-Trp-Leu-Asp-Val-Pro-amide] | 1.52 |
| GPEWLDWP-NH2 [SEQ ID NO:9 V→W, Gly-Pro-Glu-Trp-Leu-Asp-Trp-Pro-amide] | 1.08 |
| GPEWLDRP-NH2 [SEQ ID NO:9 V→R] | 1.52 |
| GPIWLDVP-NH2 [SEQ ID NO:9 E→I, Gly-Pro-Ile-Trp-Leu-Asp-Val-Pro-amide] | 1.44 |
| GPEWLRVP-NH2 [SEQ ID NO:9 D→R, Gly-Pro-Glu-Trp-Leu-Arg-Val-Pro-amide] | 2.14 |
| GPEWLDDP-NH2 [SEQ ID NO:9 V→D, Gly-Pro-Glu-Trp-Leu-Asp-Asp-Pro-amide] | 2.39 |
| GPEWLDNP-NH2 [SEQ ID NO:9 V→N] | 2.31 |
| GPEWLEVP-NH2 [SEQ ID NO:9 D→E, Gly-Pro-Glu-Trp-Leu-Glu-Val-Pro-amide] | 1.77 |
| GPEWLDEP-NH2 [SEQ ID NO:9 V→E, Gly-Pro-Glu-Trp-Leu-Asp-Glu-Pro-amide] | 2.33 |
| GPPWLDVP-NH2 [SEQ ID NO:9 E→P, Gly-Pro-Pro-Trp-Leu-Asp-Val-Pro-amide] | 0.98 |
| GPEWLFVP-NH2 [SEQ ID NO:9 D→F, Gly-Pro-GluoTrp-Leu-Phe-Val-Pro-amide] | 1.94 |
| GPEWLDSP-NH2 [SEQ ID NO:9 V→S] | 1.54 |
| GPVWLDVP-NH2 [SEQ ID NO:9 E→V, Gly-Pro-Val-Trp-Leu-Asp-Val-Pro-amide] | 1.04 |
| GPSWLDVP-NH2 [SEQ ID NO:9 E→S, Gly-Pro-Ser-Trp-Leu-Asp-Val-Pro-amide] | 0.85 |
| GPTWLDVP-NH2 [SEQ ID NO:9 E→T, Gly-Pro-Thr-Trp-Leu-Asp-Val-Pro-amide] | 0.98 |
| GPEWLDYP-NH2 [SEQ ID NO:9 V→Y, Gly-Pro-Glu-Trp-Leu-Asp-Tyr-Pro-amide] | 0.80 |
| GPWWLDVP-NH2 [SEQ ID NO:9 E→W, Gly-Pro-Trp-Trp-Leu-Asp-Val-Pro-amide] | 1.17 |
| GPEWLKVP-NH2 [SEQ ID NO:9 D→K, Gly-Pro-Glu-Trp-Leu-Lys-Val-Pro-amide] | 1.74 |
| GPAWLDVP-NH2 [SEQ ID NO:9 E→A, Gly-Pro-Ala-Trp-Leu-Asp-Val-Pro-amide] | 1.47 |
| GPEWLDHP-NH2 [SEQ ID NO:9 V→H] | 1.77 |
| GPEWLPVP-NH2 [SEQ ID NO:9 D→P, Gly-Pro-Glu-Trp-Leu-Pro-Val-Pro-amide] | 2.19 |
| GPEWLDGP-NH2 [SEQ ID NO:9 V→G] | 1.67 |
| GPKWLDVP-NH2 [SEQ ID NO:9 E→K, Gly-Pro-Lys-Trp-Leu-Asp-Val-Pro-amide] | 1.34 |

| Substance | relative quantity of adhered cells in relationship to peptide SEQ ID NO:9 |
| --- | --- |
| GPEWLDLP-NH2 [SEQ ID NO:9 V→L] | 1.54 |
| GPEWLDMP-NH2 [SEQ ID NO:9 V→M] | 2.46 |
| GPNWLDVP-NH2 [SEQ ID NO:9 E→N, Gly-Pro-Asn-Trp-Leu-Asp-Val-Pro-amide] | 0.94 |
| GPEWLDIP-NH2 [SEQ ID NO:9 V→I] | 1.81 |
| GPEWLQVP-NH2 [SEQ ID NO:9 D→Q, Gly-Pro-Glu-Trp-Leu-Gln-Val-Pro-amide] | 2.35 |
| GPLWLDVP-NH2 [SEQ ID NO:9 E→L, Gly-Pro-Leu-Trp-Leu-Asp-Val-Pro-amide] | 1.62 |
| GPEWLDFP-NH2 [SEQ ID NO:9 V→F, Gly-Pro-Glu-Trp-Leu-Asp-Phe-Pro-amide] | 1.13 |
| GPHWLDVP-NH2 [SEQ ID NO:9 E→H, Gly-Pro-His-Trp-Leu-Asp-Val-Pro-amide] | 1.23 |
| GPDWLDVP-NH2 [SEQ ID NO:9 E→D, Gly-Pro-Asp-Trp-Leu-Asp-Val-Pro-amide] | 1.54 |
| GPECLDVP-NH2 [SEQ ID NO:9 W→C, Gly-Pro-Glu-Cys-Leu-Asp-Val-Pro-amide] | 1.45 |
| GPEALDVP-NH2 [SEQ ID NO:9 W→A, Gly-Pro-Glu-Ala-Leu-Asp-Val-Pro-amide] | 1.64 |
| GPEWLHVP-NH2 [SEQ ID NO:9 D→H, Gly-Pro-Glu-Trp-Leu-His-Val-Pro-amide] | 1.74 |
| GPQWLDVP-NH2 [SEQ ID NO:9 E→Q, Gly-ProoGln-Trp-Leu-Asp-Val-Pro-amide] | 0.93 |
| GPEWLDKP-NH2 [SEQ ID NO:9 V→K] | 2.68 |
| GPEWLDPP-NH2 [SEQ ID NO:9 V→P] | 2.45 |
| GPCWLDVP-NH2 [SEQ ID NO:9 E→C, Gly-Pro-Cys-Trp-Leu-Asp-Val-Pro-amide] | 1.49 |
| GPFWLDVP-NH2 [SEQ ID NO:9 E→F, Gly-Pro-Phe-Trp-Leu-Asp-Val-Pro-amide] | 1.64 |
| GPEWLCVP-NH2 [SEQ ID NO:9 D→C, Gly-Pro-Glu-Trp-Leu-Cys-Val-Pro-amide] | 1.78 |
| GPMWLDVP-NH2 [SEQ ID NO:9 E→M, Gly-Pro-Met-Trp-Leu-Asp-Val-Pro-amide] | 1.42 |
| GPEDLDVP-NH2 [SEQ ID NO:9 W→D, Gly-Pro-Glu-Asp-Leu-Asp-Val-Pro-amide] | 1.62 |
| GPEWLMVP-NH2 [SEQ ID NO:9 D→M, Gly-Pro-Glu-Trp-Leu-Met-Val-Pro-amide] | 1.76 |
| GPYWLDVP-NH2 [SEQ ID NO:9 E→Y, Gly-Pro-Tyr-Trp-Leu-Asp-Val-Pro-amide] | 0.96 |
| GPGWLDVP-NH2 [SEQ ID NO:9 E→G, Gly-Pro-Gly-Trp-Leu-Asp-Val-Pro-amide] | 1.33 |
